In US4266048A, “Synthesis of analogs of 3'-phosphoadenosine 5'-phosphosulfate (PAPS)” (The United States of America as represented by the …, priority 1978, dated 1981):
Structures can show the parent of a compound that is named as a salt.

Legend:
[1] = target: T1, bovine adrenal estrogen sulfotransferase (EC 2.8.2.4) (Bos taurus, UniProt P19217); test: Relative sulfurylation rate (RSR): enzymic transfer of sulfate from analogs IV and V to estrone at saturating steroid; conditions: for RSR (in words): sulfurylation of estrone relative to IVa (RSR=1); for reduction in RSR relative to IVa: 200 μM, may be a result of inhibition by coproducts; for calculated level of coproduct produced: nucleotide at 200 μM
T1 sequence (P19217 1-295): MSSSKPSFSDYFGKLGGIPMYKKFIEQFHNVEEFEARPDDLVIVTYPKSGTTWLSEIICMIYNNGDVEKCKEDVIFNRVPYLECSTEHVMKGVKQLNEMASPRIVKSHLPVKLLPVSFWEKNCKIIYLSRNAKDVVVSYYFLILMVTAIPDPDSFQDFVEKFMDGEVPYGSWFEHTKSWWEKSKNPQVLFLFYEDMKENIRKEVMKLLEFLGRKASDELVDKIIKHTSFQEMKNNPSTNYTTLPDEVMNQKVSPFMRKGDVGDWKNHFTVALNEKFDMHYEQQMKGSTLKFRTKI

[2] = target: T1, bovine adrenal estrogen sulfotransferase (EC 2.8.2.4); parameters: Ki data from Horwitz et al 1977; conditions: cited from earlier work; for enzyme affinity / effect of coproduct (in words) / Ki of coproduct: estrogen sulfotransferase; for enzyme affinity / effect of coproduct (in words): discussion of Ki values; for Ki of coproduct: unit not given
[3] = target: T1, bovine adrenal estrogen sulfotransferase (EC 2.8.2.4); test: Sulfate transfer to [6,7-3H2]estrone by Compounds IVa and Va (biological activity); type: biochemical
Experimental: The biological activity of IV (like PAPS) may be measured by sulfate transfer to [6,7-^3 H2 ]estrone as mediated by bovine adrenal estrone sulfotransferase (3'-phosphoadenylylsulfate:estrone 3-sulfotransferase, EC 2.8.2.4) and is identical with that obtained with a sample of IV prepared by an established biochemical procedure.
Biological activity of IVa and Va was determined by sulfate transfer to [6,7-^3 H2 ]estrone in the presence of bovine adrenal estrogen sulfotransferase (E.C. 2.8.2.4).
Bovine spleen phosphodiesterase II (E.C. 3.1.4.18) and ribonuclease T2 were purchased from Sigma Chemical Company. Bovine adrenal estrogen sulfotransferase (E.C. 2.8.2.4.) was isolated and purified as described by Adams et al, Biochim. Biophys. Acta, 370:160-188 (1974). [^35 S]PAPS and [6,7-^3 H2 ]-estrone were purchased from New England Nuclear Corp.
Sulfation of estrone with synthetic Compound IVa (PAPS) was determined using the procedure described in the article by Rozhin et al, ante. Sulfation by Compound Va was as follows. The ability of Compound Va to donate its sulfate to estrone was determined with [6,7-^3 H2 ]estrone (1.3·10^6 dpm/4 nmol) by modification of the above-mentioned Rozhin et al method in which Compound Va (0.11 mM) […] for Compound IVa.
After termination of the incubation, excess free [^3 H]estrone was extracted three times with 0.3 ml of ethyl ether and the aqueous sample adjusted to 0.5 ml with redistilled methanol. An aliquot (25 μl) was applied, together with 15 μg of methanolic estrone sulfate marker, to type SG chromatography media (Gelman Instrument Co., Ann Arbor, Michigan) and developed with chloroform/acetone/acetic acid (110:35:6). Estrone sulfate was visualized by spraying with methylene blue and the spot punched out with a cork borer and counted in 10 ml of Bray's dioxane scintillation solution. […] The amount of steroid sulfate ester produced was calculated utilizing the specific activity of [^3 H]estrone.

Storage stability = type: physicochemical; conditions: 50% ethanol at -20° C.
Experimental: Fractions containing Compound IVa were pooled and the buffer was removed in the usual manner. The product was redissolved in approx. 3 ml of H2 O and the solution was adjusted to pH 7 with dilute NH4 OH. Treatment of a small aliquot of the latter with an equal volume of 0.2 M HCl at 37° C. for 1.75 h gave adenosine 3',5'-diphosphate as the sole detectable product in Systems S1 and S2. Compound IVa was homogeneous in S1, S2, E1 and E2. […] Compound IVa gave yields of 68-72% based on Compound IIa.

[4] = target: T1, bovine adrenal estrogen sulfotransferase (EC 2.8.2.4); test: Inhibition / affinity of desulfurylated nucleotides (coproducts) on estrogen sulfotransferase; type: biochemical; parameters: Ki data from Horwitz et al 1977; conditions: product of the reaction
Text: ^b Data taken from Tables II and III of Horwitz et al, Biochim.

Structure (SMILES): Nc1ncnc2c1ccn2[C@@H]1O[C@H](COP(=O)(O)OS(=O)(=O)O)[C@@H](O)[C@H]1OP(=O)(O)O [2'P(7-deaza-Ado)5'PS, tubercidin 2'-phosphate 5'-phosphosulfate]
- RSR (in words) [1]: relatively low

Structure (SMILES): Nc1ncnc2c1ccn2[C@@H]1O[C@H](COP(=O)(O)O)[C@@H](O)[C@H]1OP(=O)(O)O [2'P(7-deaza-Ado)5'P]
- enzyme affinity / effect of coproduct (in words) [2]: has an effect on the estrogen sulfotransferase reaction
- Ki of coproduct [2]: compares favorably with that of 3'PAdo5'P

Structure (SMILES): Nc1ncnc2c1ncn2[C@@H]1O[C@H](COP(=O)(O)O)[C@@H](O)[C@H]1OP(=O)(O)O [2'PAdo5'P, adenosine 2',5'-diphosphate]
- Ki of desulfurylated nucleotide (coproduct) ([2]; data taken from Horwitz et al, Biochim. Biophys. Acta, 480:376-381 (1977)): .infin.
- enzyme affinity / effect of coproduct (in words) [2]: weak and devoid of activity
- Ki of coproduct [2]: .infin.

Structure (SMILES): Nc1ncnc2c1ncn2[C@@H]1O[C@H](COP(=O)(O)OS(=O)(=O)O)[C@@H](O)[C@H]1OP(=O)(O)O [2'PAdo5'PS, adenosine 2'-phosphate 5'-phosphosulfate]
- activity relative to the natural isomer ([3]; Iso-PAPS, sulfate transfer to [6,7-3H2]estrone): approximately one-third
- activity relative to the natural isomer (IVa) ([3]; sulfate transfer to estrone): approximately one-third
- RSR at 200 μM (expected) ([1]; expected value at 200 μM concentration): ~0.29
- saturation concentration ([1]; stated in Table III footnote c): 100 µM

Structure (SMILES): Nc1ncnc2c1nc(Br)n2[C@@H]1O[C@H](COP(=O)(O)OS(=O)(=O)O)[C@@H](OP(=O)(O)O)[C@H]1O [3'P8-BrAdo5'PS, 8-bromoadenosine 3'-phosphate 5'-phosphosulfate]
- reduction in RSR relative to IVa [1]: 14-15%
- calculated level of coproduct produced [1]: 4 µM
- RSR (in words) [1]: compare favorably with active sulfate itself
- RSR (in words) ([1]; listed as IVb): the largest

Structure (SMILES): Nc1ncnc2c1ccn2[C@@H]1O[C@H](COP(=O)(O)O)[C@@H](OP(=O)(O)O)[C@H]1O [3'P(7-deaza-Ado)5'P, tubercidin (4-amino-7-(β-D-ribofuranosyl)-7H-pyrrolo-[2,3-d]-pyrimidine) 3',5'-diphosphate]
- enzyme affinity / effect of coproduct (in words) [2]: enhanced affinity

Structure (SMILES): Nc1ncnc2c1ccn2[C@@H]1O[C@H](COP(=O)(O)OS(=O)(=O)O)[C@@H](OP(=O)(O)O)[C@H]1O [3'P(7-deaza-Ado)5'PS, tubercidin 3'-phosphate 5'-phosphosulfate]
- reduction in RSR relative to IVa [1]: 14-15%
- calculated level of coproduct produced [1]: 4 µM
- RSR (in words) ([1]; listed as 3'PTu5'PS): compare favorably with active sulfate itself
- RSR (in words) ([1]; listed as IVe): the largest

Structure (SMILES): Nc1ncnc2c1ncn2[C@@H]1O[C@H](COP(=O)(O)OS(=O)(=O)O)[C@@H](OP(=O)(O)O)[C@H]1O [3'PAdo5'PS, adenosine 3'-phosphate 5'-phosphosulfate]
- saturation curves for IV from two sources ([3]; IV 15-100 μM, [6,7-3H2]estrone 100 μM): essentially superimposable
- activity compared with PAPS from enzymatic/biochemical procedure ([3]; sulfate transfer to [6,7-3H2]estrone, listed as IV): virtually identical
- storage stability (Storage stability): kept indefinitely

Structure (SMILES): Nc1ncnc2c([C@@H]3O[C@H](COP(=O)(O)O)[C@@H](OP(=O)(O)O)[C@H]3O)n[nH]c12 [3'PFo5'P, formycin (7-amino-3-(β-D ribofuranosyl)pyrazolo-[4,3-d]-pyrimidine) 3',5'-diphosphate]
- enzyme affinity / effect of coproduct (in words) [2]: intermediate affinity

Structure (SMILES): Nc1ncnc2c([C@@H]3O[C@H](COP(=O)(O)OS(=O)(=O)O)[C@@H](OP(=O)(O)O)[C@H]3O)n[nH]c12 [3'PFo5'PS, formycin 3'-phosphate 5'-phosphosulfate]
- RSR (in words) [1]: modest capacity to sulfurylate estrone

Structure (SMILES): O=P(O)(O)OC[C@H]1O[C@@H](n2cnc3c(O)ncnc32)[C@H](O)[C@@H]1OP(=O)(O)O [3'PIno5'P, inosine 3',5'-diphosphate]
- enzyme affinity / effect of coproduct (in words) [2]: substantial loss of enzyme affinity

Structure (SMILES): O=c1[nH]cnc2c1ncn2[C@@H]1O[C@H](COP(=O)(O)OS(=O)(=O)O)[C@@H](OP(=O)(O)O)[C@H]1O [3'PIno5'PS, inosine 3'-phosphate 5'-phosphosulfate]
- RSR (in words) [1]: low
- RSR (in words) ([1]; listed as IVd): only minimal

Structure (SMILES): O=P(O)(O)OC[C@H]1O[C@@H](n2cnc3cncnc32)[C@H](O)[C@@H]1OP(=O)(O)O [3'PPuo5'P, nebularine (9-β-D-ribofuranosylpurine) 3',5'-diphosphate]
- enzyme affinity / effect of coproduct (in words) [2]: substantial loss of enzyme affinity

Structure (SMILES): O=P(O)(O)O[C@H]1[C@@H](O)[C@H](n2cnc3cncnc32)O[C@@H]1COP(=O)(O)OS(=O)(=O)O [3'PPuo5'PS, nebularine 3'-phosphate 5'-phosphosulfate]
- RSR (in words) [1]: low
- RSR (in words) ([1]; listed as IVc): only minimal

Structure (SMILES): C[C@]12CC[C@@H]3c4ccc(OS(=O)(=O)O)cc4CC[C@H]3[C@@H]1CCC2=O [Estrone sulfate]
- effect on the estrogen sulfotransferase reaction [4]: little or no effect
